Results published in patent publication US20100292306A1, “Compositions And Methods For The Treatment Of Muscular Dystrophy” (priority 2005, published 2010).
“Also recorded” adds a separate entry of the source.

Tests used:
[1] = tested on: cytosolic IκB-α; assay: Western blot of cytosolic IκB-α in mdx diaphragm after a single PDTC dose; type: in vivo, mdx mice
Description: Cytosolic levels of IκB-α may be determined using Western blot techniques. Cytosolic and nuclear fractions may be obtained from isolated diaphragm muscles using the techniques described in Kumar and Boriek, 2003. Briefly, the muscles may be weighed after removing tendinous components, and frozen and homogenized by mortar and pestle in lysis buffer on ice (1 mg muscle/18 μl lysis buffer containing 10 mM HEPES, 10 mM KCl, 1.5 mM MgCl2, 0.1 mM EDTA, 0.1 mM EGTA, 1 mM dithiothreitol, 0.5 mM phenylmethylsulfonylfluoride, 2.0 μg/ml leupeptin, 2.0 μg/ml aprotinin, 0.5 mg/ml benzamidine, at pH 7.9). To lyse the cells, the ground tissue may be subjected to two freeze-thaw cycles and subsequently vortexed and centrifuged (13,000 rpm, 10 s). […]
Equal amounts of proteins (based on Lowry Assay) from treated vs. untreated cytosolic fractions may be boiled in SDS-PAGE sample buffer for 5 min, applied to 10% SDS-PAGE gel, and blotted onto PVDF (polyvinyl difluoride) membrane. […] After additional washing steps, the antibody complex may be detected by chemiluminescence using the ECL detection reagent (Amersham) and densitometric measurements may also be obtained. […]

[2] = tested on: nuclear p65 activation; assay: TransAM NF-κB ELISA of nuclear p65 activation in mdx costal diaphragm; type: in vivo, mdx mice
Description: Cytosolic and nuclear fractions were obtained from isolated costal diaphragm using techniques that were slightly modified from Kumar and Boriek (2003). The muscles were removed from vehicle and drug-treated euthanized mdx mice at the end of the treatment period, and were flash-frozen and stored at −80° C. for a period of 1 to 4 weeks. The muscles were then thawed and weighed before being homogenized on ice using a mortar and pestle in low salt lysis (LSL) buffer (1 mg muscle wet weight/18 μl solution; in mM: 10 HEPES, 10 KCl, 1.5 MgCl2, 0.1 EDTA, 0.1 EGTA, 1 dithiothreitol (DTT), 0.5 phenylmethylsulfonylfluoride (PMSF); 0.5 mg/ml benzamidine, 4.0 μl/ml protease inhibitor cocktail Sigma #8340 (PIC) to produce the following final concentrations—2.1 μg/ml leupeptin, 3.85 μg/ml aprotinin, 0.416 mM AEBSF (Sigma A8456), 16 μM bestatin, 6 μM pepstatin A, 5.6 μM E64; pH 7.9). To lyse the cells, the ground tissue was then subjected to 2 freeze-thaw cycles (5 min freeze on dry ice followed by thawing at room temperature), and was subsequently vortexed and centrifuged (13,000 rpm, 15 s). The supernatant cytosolic extract was immediately frozen (−80° C.) for subsequent analyses as needed, while the nuclear pellet was washed in 50 μl LSL (2 times) before being re-suspended on ice in a high salt nuclear extraction buffer (in mM: 20 HEPES, 420 NaCl, 1 EDTA, 1 EGTA, 1 DTT, 0.5 PMSF; 25% glycerol, 0.5 mg/ml benzamidine, 4.0 μl/ml PIC; pH 7.9) at a ratio of 4 μl of solution per mg muscle wet weight. Preparations were incubated on ice for 30 min and vortexed for 10 s every 5 min before being centrifuged (13,000 rpm, 6 min) at 4° C. The supernatant nuclear extract was then removed and frozen (−80° C.) for subsequent analyses. Potential contamination of nuclear extracts with cytoplasmic proteins was less than 5%. Protein determinations for each fraction were obtained using the Bradford assay.
The Trans-Am assay (Active Motif; Carlsbad, Calif.) was used to determine nuclear NF-κB activation in nuclear fractions which were applied to the 96 well ELISA plates at 2-20 μg protein. The p65 primary antibody (catalogue number 40096) was used to detect p65 bound to oligonucleotide in vehicle and drug-treated preparations in accordance with kit instructions. A nuclear extract from Jurkat cells was routinely run as a positive control in association with each set of control and experimental samples.
Horizontal dashed lines indicate average levels observed in nondystrophic, vehicle, and UDCA treated preparations as indicated. In each case, percent recovery is determined by dividing the mean improvement observed in the UDCA treated preparation (UDCA-vehicle) from the deficit observed in the vehicle-treated preparation (nondystrophic-vehicle mdx). Mdx mice were treated for 30 days beginning at 1 month of age. Horizontal dashed lines in (A) and (B) representing nondystrophic values were obtained from a cohort of nondystrophic mice at 2 months of age. […] The results were obtained from two separate groups of vehicle and UDCA treated preparations that were assayed using two different 96 well plates. For each plate, the absorbance for each sample was normalized to the average absorbance determined for the vehicle-treated preparations on that plate. […] Millman et al., 2007. N is the number of mice and preparations in each condition. Shown are the means and standard errors. […] indicate p<0.05 and p<0.01, respectively, between vehicle and UDCA treated preparations. […]

Structure (SMILES): S=C(S)N1CCCC1 [PDTC, pyrrolidine dithiocarbamate]
- period of increased cytosolic IκB-α levels ([1]; single dose 50 mg/kg ip, adult mdx skeletal muscle): at least 5 h
- ambient levels of cytosolic IκB-α ([1]; single ip dose 50 mg/kg, diaphragm 3 and 5 h after injection, vs vehicle littermates, 50 mg/kg): substantially increased; also recorded: increases
- reduction of nuclear p65 activation ([2]; mature adult mdx, PDTC 50 mg/kg/day ip 30 days, not significant, p=0.4, N=4 vehicle, N=3 PDTC): 23%
- effect on nuclear p65 activation ([2]; young adult mdx, PDTC 60 days beginning at 30 days of age, N=5 per group): no effect
